Laboratory results reported in patent publication US9708316B2 (BRISTOL-MYERS SQUIBB COMPANY, priority 2014, dated 2017).

What was measured:
HIS-TGFβR1 T204D = molecular target: T1, HIS-TGFβR1 T204D (Homo sapiens, UniProt P36897, T204D); test: HTRF probe-displacement assay, HIS-TGFβR1 T204D; type: binding; details: read-out: TGFβR1 (μM) IC50
T1 sequence (P36897 34-503 T204D): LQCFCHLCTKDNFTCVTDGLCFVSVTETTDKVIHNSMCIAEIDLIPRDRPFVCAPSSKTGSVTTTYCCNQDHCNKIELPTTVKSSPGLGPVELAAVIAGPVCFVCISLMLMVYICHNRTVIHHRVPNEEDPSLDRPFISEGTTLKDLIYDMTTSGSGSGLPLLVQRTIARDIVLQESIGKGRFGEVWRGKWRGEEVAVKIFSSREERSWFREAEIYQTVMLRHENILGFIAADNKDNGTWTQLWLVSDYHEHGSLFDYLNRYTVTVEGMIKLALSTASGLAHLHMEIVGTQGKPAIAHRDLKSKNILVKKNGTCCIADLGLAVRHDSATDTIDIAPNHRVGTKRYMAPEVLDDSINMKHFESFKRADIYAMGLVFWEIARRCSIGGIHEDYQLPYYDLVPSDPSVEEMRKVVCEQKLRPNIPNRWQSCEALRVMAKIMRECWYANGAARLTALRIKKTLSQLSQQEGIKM

HIS-TGFβR2 WT = HIS-TGFβR2 WT (Homo sapiens, UniProt P37173); test: HTRF probe-displacement assay, HIS-TGFβR2 WT; type: binding
Sequence of HIS-TGFβR2 WT (P37173 23-567): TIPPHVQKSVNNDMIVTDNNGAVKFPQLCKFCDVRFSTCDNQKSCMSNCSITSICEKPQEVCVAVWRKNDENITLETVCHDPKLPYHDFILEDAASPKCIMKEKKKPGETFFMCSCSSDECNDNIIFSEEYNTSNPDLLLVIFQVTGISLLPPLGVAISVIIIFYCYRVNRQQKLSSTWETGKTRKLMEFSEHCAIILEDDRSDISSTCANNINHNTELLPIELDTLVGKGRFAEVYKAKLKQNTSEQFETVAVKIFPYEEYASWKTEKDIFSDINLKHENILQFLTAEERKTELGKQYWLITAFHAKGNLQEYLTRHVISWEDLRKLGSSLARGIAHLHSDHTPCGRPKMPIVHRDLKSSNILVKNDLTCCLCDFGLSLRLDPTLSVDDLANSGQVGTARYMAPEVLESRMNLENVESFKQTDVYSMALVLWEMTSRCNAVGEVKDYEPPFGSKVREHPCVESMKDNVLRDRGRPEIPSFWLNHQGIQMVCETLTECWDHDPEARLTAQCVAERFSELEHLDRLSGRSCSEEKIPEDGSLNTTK

| SMILES | IC50 (HIS-TGFβR1 T204D) [µM] | IC50 (HIS-TGFβR2 WT) [µM] |
| --- | --- | --- |
| CC(=O)Nc1cc(-c2[nH]c3cc(Cl)cnc3c2-c2nc(CO)cs2)ccn1 [Example 178, N-(4-(6-Chloro-3-(4-(hydroxymethyl)thiazol-2-yl)-1H-pyrrolo[3,2-b]pyridin-2-yl)pyridin-2-yl)acetamide] | 0.0035 | 0.176 |
| CC(=O)Nc1cc(-c2[nH]c3cc(F)cnc3c2-c2cccc(Cl)n2)ccn1 [Example 38, N-{4-[3-(6-Chloropyridin-2-yl)-6-fluoro-1H-pyrrolo[3,2-b]pyridin-2-yl]pyridin-2-yl}acetamide] | 0.002 | 0.11 |
| CC(=O)Nc1cc(-c2[nH]c3c(CO)ccnc3c2-c2ccc(F)nc2)ccn1 [Example 277, N-(4-(3-(6-Fluoropyridin-3-yl)-7-(hydroxymethyl)-1H-pyrrolo[3,2-b]pyridin-2-yl)pyridin-2-yl)acetamide] | 0.006 | 0.01 |
| COc1ccnc2c(-c3cccc(C)n3)c(-c3ccnc(NC(C)=O)c3)[nH]c12 [Example 257, N-(4-(7-Methoxy-3-(6-methylpyridin-2-yl)-1H-pyrrolo[3,2-b]pyridin-2-yl)pyridin-2-yl)acetamide] | 0.003 | 6.21 |
| COc1ccnc2c(-c3ccc(F)cn3)c(-c3ccnc(NC(C)=O)c3)[nH]c12 [Example 268, N-(4-(3-(5-Fluoropyridin-2-yl)-7-methoxy-1H-pyrrolo[3,2-b]pyridin-2-yl)pyridin-2-yl)acetamide] | 0.005 | 2.45 |
| CCc1ccnc(-c2c(-c3ccnc(NC(C)=O)c3)[nH]c3cccnc23)c1 [Example 29, N-{4-[3-(4-Ethylpyridin-2-yl)-1H-pyrrolo[3,2-b]pyridin-2-yl]pyridin-2-yl}acetamide] | 0.017 | > 15 |
| CC(=O)Nc1cc(-c2[nH]c3cccnc3c2-c2csc(C)n2)ccn1 [Example 211, N-(4-(3-(2-Methylthiazol-4-yl)-1H-pyrrolo[3,2-b]pyridin-2-yl)pyridin-2-yl)acetamide] | 0.0049 | 1.04 |
| CC(=O)Nc1cc(-c2[nH]c3c(C4CCCCO4)ccnc3c2-c2cccc(C(F)F)n2)ccn1 (stereo not shown) [Example 134, N-(4-{3-[6-(Difluoromethyl)pyridin-2-yl]-7-(oxan-2-yl)-1H-pyrrolo[3,2-b]pyridin-2-yl}pyridin-2-yl)acetamide] | 0.004 | 8.66 |
| COc1ccc(-c2c(-c3ccnc(NC(C)=O)c3)[nH]c3c(C(F)F)ccnc23)cn1 [Example 213, N-(4-(7-(Difluoromethyl)-3-(6-methoxypyridin-3-yl)-1H-pyrrolo[3,2-b]pyridin-2-yl)pyridin-2-yl)acetamide] | 0.0061 | 0.118 |
| COc1ccc(-c2c(-c3ccnc(NC(C)=O)c3)[nH]c3c(C(C)O)ccnc23)cn1 (stereo not shown) [Example 230, N-(4-(7-(1-Hydroxyethyl)-3-(6-methoxypyridin-3-yl)-1H-pyrrolo[3,2-b]pyridin-2-yl)pyridin-2-yl)acetamide] | 0.0024 | 0.037 |
| CC(=O)Nc1cc(-c2[nH]c3cccnc3c2-c2nccs2)ccn1 [Example 205, N-(4-(3-(Thiazol-2-yl)-1H-pyrrolo[3,2-b]pyridin-2-yl)pyridin-2-yl)acetamide] | 0.0029 | 0.147 |
| COc1ccc(-c2c(-c3ccnc(NC(C)=O)c3)[nH]c3cc(OC4COC4)cnc23)nc1 [Example 98, N-(4-(3-(5-Methoxypyridin-2-yl)-6-(oxetan-3-yloxy)-1H-pyrrolo[3,2-b]pyridin-2-yl)pyridin-2-yl)acetamide] | 0.002 | > 15 |
| CC(=O)Nc1cc(-c2[nH]c3cc(Br)cnc3c2-c2cccc(C(F)F)n2)ccn1 [Example 272, N-(4-(6-Bromo-3-(6-(difluoromethyl)pyridin-2-yl)-1H-pyrrolo[3,2-b]pyridin-2-yl)pyridin-2-yl)acetamide] | 0.001 | 1.85 |
| CC(=O)Nc1cc(-c2[nH]c3cccnc3c2-c2ncccn2)ccn1 [Example 8, N-{4-[3-(Pyrimidin-2-yl)-1H-pyrrolo[3,2-b]pyridin-2-yl]pyridin-2-yl}acetamide] | 0.009 | 2.03 |
